Source: patent publication US7998984B2, “2-pyridone derivatives for the treatment of disease or condition in which inhibition of neutrophil elastase activity is beneficial” (AstraZeneca AB, priority 2006, dated 2011)

Molecular target: T1, Human Neutrophil Elastase (HNE) (Homo sapiens, UniProt P08246)
T1 construct: Human Neutrophil Elastase (HNE) purified from serum; purchased Calbiochem 324681; host or cells: purified from human serum (so in the source)
T1 sequence (P08246 30-247 limits assumed): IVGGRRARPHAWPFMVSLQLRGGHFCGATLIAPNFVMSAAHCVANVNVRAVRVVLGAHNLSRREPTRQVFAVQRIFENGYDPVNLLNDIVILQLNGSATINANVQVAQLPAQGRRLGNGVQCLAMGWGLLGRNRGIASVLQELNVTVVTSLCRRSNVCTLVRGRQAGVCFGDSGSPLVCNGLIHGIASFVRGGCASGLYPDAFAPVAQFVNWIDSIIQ
Assay: Human Neutrophil Elastase Quenched-FRET Assay
Type: biochemical
Conditions: HNE 1.7 nM, substrate MeOSuc-AAPV-AMC 100 μM, 15 min pre-incubation, 30 min incubation at room temperature; read-out: Inhibition of Human Neutrophil Elastase IC50
Description: Human Neutrophil Elastase Quenched-FRET Assay
HNE was stored in 50 mM sodium acetate (NaOAc), 200 mM sodium chloride (NaCl), pH 5.5 with added 30% glycerol at −20° C. […] The substrate was stored in dimethyl sulphoxide (DMSO) at −20° C. […] The assay buffer constitution was: 100 mM Tris(hydroxymethyl)aminomethane (TRIS) (pH 7.5) and 500 mM NaCl. The enzyme and the compounds were incubated at room temperature for 15 minutes. Then 30 μl substrate in assay buffer was added. The assay was incubated for 30 minutes at room temperature. […] The assay was then stopped by adding 60 μl stop solution (140 mM acetic acid, 200 mM sodium monochloroacetate, 60 mM sodium acetate, pH 4.3).

| Structure (SMILES) | IC50 [nM] |
| --- | --- |
| CNC(=O)c1cc(-c2nc(N)sc2-c2ccc(Cl)cc2)c(C)n(-c2cccc(C(F)(F)F)c2)c1=O [Example 3, 5-[2-Amino-5-(4-chlorophenyl)-1,3-thiazol-4-yl]-N,6-dimethyl-2-oxo-1-[3-(trifluoromethyl)-phenyl]-1,2-dihydropyridine-3-carboxamide] | 0.26 |
| CNC(=O)c1cc(-c2ocnc2-c2ccc(Cl)cc2)c(C)n(-c2cccc(C(F)(F)F)c2)c1=O [Example 4, 5-[4-(4-Chlorophenyl)-1,3-oxazol-5-yl]-N,6-dimethyl-2-oxo-1-[3-(trifluoromethyl)phenyl]-1,2-dihydropyridine-3-carboxamide] | 1.6 |
| CNC(=O)c1cc(-c2nc(N)sc2-c2ccc(C#N)cc2)c(C)n(-c2cccc(C(F)(F)F)c2)c1=O [Example 5, 5-[2-Amino-5-(4-cyanophenyl)-1,3-thiazol-4-yl]-N,6-dimethyl-2-oxo-1-[3-(trifluoromethyl)phenyl]-1,2-dihydropyridine-3-carboxamide] | 0.26 |
| CNC(=O)c1cc(-c2ccnn2-c2ccc(C#N)cc2)c(C)n(-c2ccc(F)c(Cl)c2)c1=O [Example 6, 1-(3-Chloro-4-fluorophenyl)-5-[1-(4-cyanophenyl)-1H-pyrazol-5-yl]-N,6-dimethyl-2-oxo-1,2-dihydropyridine-3-carboxamide] | 0.93 |
